Columns and labels:
[1] = target: Cyclin-dependent kinase 7/ cyclin H (Homo sapiens, UniProt P50613); experiment: Binding affinity to CDK7/CyclinH (unknown origin) assessed as dissociation constant by SPR assay; assay type: protein-complex assay
[2] = Clearance in female Balb/c nude mouse at 1 mg/kg, iv; assay type: ADME, organism-based; settings: in vivo
[3] = Permeability in human Caco-2 cells; assay type: ADME, cell-based; settings: read-out: permeability
[4] = Half life in female Balb/c nude mouse at 5 mg/kg, po; assay type: ADME, organism-based; settings: in vivo
[5] = Cmax in female Balb/c nude mouse at 5 mg/kg, po; assay type: ADME, organism-based; settings: in vivo
[6] = Half life in dog at 2 mg/kg, po; assay type: ADME, organism-based, Canis lupus familiaris; settings: in vivo
[7] = Half life in mouse at 5 mg/kg, po; assay type: ADME, organism-based; settings: in vivo
[8] = Half life in rat at 5 mg/kg, po; assay type: ADME, organism-based; settings: in vivo
[9] = Volume of distribution at steady state in mouse at 1 mg/kg, iv; assay type: ADME, organism-based; settings: in vivo, read-out: Vdss
[10] = AUC(0 to t) in rat at 1 mg/kg, iv; assay type: ADME, organism-based; settings: in vivo
[11] = AUC(0 to t) in dog at 0.2 mg/kg, iv; assay type: ADME, organism-based, Canis lupus familiaris; settings: in vivo
[12] = AUC(0 to t) in mouse at 5 mg/kg, po; assay type: ADME, organism-based; settings: in vivo
[13] = AUC(0 to t) in dog at 2 mg/kg, po; assay type: ADME, organism-based, Canis lupus familiaris; settings: in vivo
[14] = Cmax in rat at 5 mg/kg, po; assay type: ADME, organism-based; settings: in vivo
[15] = Cmax in dog at 2 mg/kg, po; assay type: ADME, organism-based, Canis lupus familiaris; settings: in vivo
[16] = Oral bioavailability in rat at 5 mg/kg; assay type: ADME, organism-based; settings: in vivo
[17] = Drug concentration in rat small intestine at 5 mg/kg, po measured after 0.5 hrs; assay type: ADME, organism-based; settings: read-out: Ct
[18] = Drug concentration in rat small intestine at 5 mg/kg, po measured after 8 hrs; assay type: ADME, organism-based; settings: read-out: Ct
[19] = Drug concentration in rat plasma at 5 mg/kg, po measured after 8 hrs; assay type: ADME, organism-based
[20] = Half life in Sprague-Dawley rat at 30 mg/kg, po; assay type: ADME, organism-based; settings: in vivo
[21] = Half life in Sprague-Dawley rat at 100 mg/kg, po; assay type: ADME, organism-based; settings: in vivo
[22] = Cmax in Sprague-Dawley rat at 30 mg/kg, po; assay type: ADME, organism-based; settings: in vivo
[23] = Cmax in Sprague-Dawley rat at 100 mg/kg, po; assay type: ADME, organism-based; settings: in vivo
[24] = Cmax in Sprague-Dawley rat at 300 mg/kg, po; assay type: ADME, organism-based; settings: in vivo
[25] = target: Mitogen-activated protein kinase 15 (Homo sapiens, UniProt Q8TD08); experiment: Inhibition of Erk8 (unknown origin)
[26] = target: Cyclin-dependent kinase 14/Cyclin-Y (Homo sapiens, UniProt O94921); experiment: Inhibition of CDK14/Cyclin Y (unknown origin); assay type: protein-complex assay
[27] = target: Cyclin-dependent kinase 4/cyclin D1 (Homo sapiens, UniProt P11802); experiment: Inhibition of CDK4/CyclinD1 (unknown origin); assay type: protein-complex assay
CDK18/Cyclin Y [28] = target: T1, CDK18/Cyclin Y (Homo sapiens, UniProt Q07002+Q8ND76); experiment: Inhibition of CDK18/Cyclin Y (unknown origin); assay type: protein-complex assay
CDK4/Cyclin D3 = CDK4/Cyclin D3 (Homo sapiens, UniProt P11802); experiment: Inhibition of CDK4/Cyclin D3 (unknown origin); assay type: protein-complex assay
[29] = target: Serine/threonine-protein kinase D1 (Homo sapiens, UniProt Q15139); experiment: Inhibition of PRKD1 (unknown origin)
[30] = target: Serine/threonine-protein kinase D2 (Homo sapiens, UniProt Q9BZL6); experiment: Inhibition of PRKD2 (unknown origin)
[31] = target: Serine/threonine-protein kinase TAO1 (Homo sapiens, UniProt Q7L7X3); experiment: Inhibition of TAOK1 (unknown origin)
[32] = target: Ribosomal protein S6 kinase alpha-3 (Homo sapiens, UniProt P51812); experiment: Inhibition of RSK2 (unknown origin)
[33] = Plasma protein binding in human assessed as unbound fraction; assay type: ADME, cell-free
[34] = Plasma protein binding in rat assessed as unbound fraction; assay type: ADME, cell-free
Cytochrome P450 1A2 = Cytochrome P450 1A2 (Homo sapiens, UniProt P05177); experiment: Inhibition of CYP1A2 (unknown origin); assay type: ADME
Cytochrome P450 2D6 = Cytochrome P450 2D6 (Homo sapiens, UniProt P10635); experiment: Inhibition of CYP2D6 (unknown origin); assay type: ADME
Cytochrome P450 3A4 = Cytochrome P450 3A4 (Homo sapiens, UniProt P08684); experiment: Inhibition of CYP3A4 (unknown origin); assay type: ADME
OVCAR-3 [35] = experiment: Antitumor activity against human OVCAR-3 cells xenografted in female Balb/c nude mouse assessed as tumor growth inhibition at 20 mg/kg, po administered once daily and measured on day 22; assay type: functional; settings: OVCAR-3, 528 h, time 22 day, read-out: TGI
[36] = Half life in human OVCAR-3 cells xenografted in female Balb/c nude mouse plasma at 5 mg/kg, po administered once daily; assay type: ADME, organism-based
[37] = Half life in human OVCAR-3 cells xenografted in female Balb/c nude mouse plasma at 20 mg/kg, po administered once daily; assay type: ADME, organism-based
[38] = Cmax in human OVCAR-3 cells xenografted in female Balb/c nude mouse plasma at 2 mg/kg, po administered once daily; assay type: ADME, organism-based
[39] = AUC (0 to t) in human OVCAR-3 cells xenografted in female Balb/c nude mouse plasma at 10 mg/kg, po administered once daily; assay type: ADME, organism-based
HCC70 = experiment: Antitumor activity against human HCC70 cells xenografted in female nu/nu mouse assessed as tumor growth inhibition at 1 mg/kg, po administered once daily and measured for 4 weeks; assay type: functional; settings: HCC70, 672 h, read-out: TGI
[40] = Half life in human HCC70 cells xenografted in female nu/nu mouse plasma at 3 mg/kg, po administered once daily; assay type: ADME, organism-based
[41] = Cmax in human HCC70 cells xenografted in female nu/nu mouse plasma at 3 mg/kg, po administered once daily; assay type: ADME, organism-based
[42] = AUC(0 to t) in human HCC70 cells xenografted in female nu/nu mouse plasma at 1 mg/kg, po administered once daily; assay type: ADME, organism-based
[43] = Toxicity in female nu/nu mouse xenografted with human HCC70 cells assessed as body weight loss at 1 to 10 mg/kg, po administered once daily and measured for 4 weeks; assay type: organism-based; settings: in vivo, 672 h, dose 1-10 mg/kg
OVCAR-3 [44] = experiment: cells; settings: Homo sapiens, OVCAR-3, 72 h
Description: Antiproliferative activity against human OVCAR-3 cells assessed as inhibition of cell proliferation incubated for 72 hrs by celltiter-glo assay

[45] = target: Homeodomain-interacting protein kinase 4 (Homo sapiens) (UniProt Q8NE63); experiment: Inhibition of HIPK4 (unknown origin) at 200 nM relative to control; values are per cent of control
[46] = target: Cyclin-Y/Cyclin-dependent kinase 16 (Homo sapiens) (UniProt Q00536+Q8ND76); experiment: Inhibition of CDK16/CyclinY (unknown origin) at 200 nM relative to control; values are per cent of control
CDK18/Cyclin Y [47] = target: T1, CDK18/Cyclin Y; experiment: Inhibition of CDK18/Cyclin Y (unknown origin) at 200 nM relative to control; values are per cent of control

Chain of Ribosomal protein S6 kinase alpha-3 (P51812 whole entry): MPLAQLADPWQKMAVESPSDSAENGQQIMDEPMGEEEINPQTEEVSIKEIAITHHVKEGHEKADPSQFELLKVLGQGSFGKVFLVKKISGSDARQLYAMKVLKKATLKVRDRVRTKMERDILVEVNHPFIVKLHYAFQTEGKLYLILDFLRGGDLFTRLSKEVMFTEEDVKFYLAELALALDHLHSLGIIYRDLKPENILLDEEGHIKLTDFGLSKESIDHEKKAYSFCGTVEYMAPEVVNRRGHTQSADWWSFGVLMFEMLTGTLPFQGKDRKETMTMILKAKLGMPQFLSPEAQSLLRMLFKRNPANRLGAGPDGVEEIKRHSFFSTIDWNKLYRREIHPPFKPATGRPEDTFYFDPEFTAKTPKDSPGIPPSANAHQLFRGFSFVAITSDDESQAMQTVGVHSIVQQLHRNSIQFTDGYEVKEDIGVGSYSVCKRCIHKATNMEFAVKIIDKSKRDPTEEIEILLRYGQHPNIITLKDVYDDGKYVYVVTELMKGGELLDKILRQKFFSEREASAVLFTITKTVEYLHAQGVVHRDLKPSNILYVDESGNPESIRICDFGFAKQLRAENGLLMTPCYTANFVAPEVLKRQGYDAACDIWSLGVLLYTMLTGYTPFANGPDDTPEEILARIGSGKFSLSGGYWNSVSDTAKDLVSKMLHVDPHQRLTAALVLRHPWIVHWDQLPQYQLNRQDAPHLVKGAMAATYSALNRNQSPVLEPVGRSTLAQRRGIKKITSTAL
T1 sequence (Q07002 whole entry): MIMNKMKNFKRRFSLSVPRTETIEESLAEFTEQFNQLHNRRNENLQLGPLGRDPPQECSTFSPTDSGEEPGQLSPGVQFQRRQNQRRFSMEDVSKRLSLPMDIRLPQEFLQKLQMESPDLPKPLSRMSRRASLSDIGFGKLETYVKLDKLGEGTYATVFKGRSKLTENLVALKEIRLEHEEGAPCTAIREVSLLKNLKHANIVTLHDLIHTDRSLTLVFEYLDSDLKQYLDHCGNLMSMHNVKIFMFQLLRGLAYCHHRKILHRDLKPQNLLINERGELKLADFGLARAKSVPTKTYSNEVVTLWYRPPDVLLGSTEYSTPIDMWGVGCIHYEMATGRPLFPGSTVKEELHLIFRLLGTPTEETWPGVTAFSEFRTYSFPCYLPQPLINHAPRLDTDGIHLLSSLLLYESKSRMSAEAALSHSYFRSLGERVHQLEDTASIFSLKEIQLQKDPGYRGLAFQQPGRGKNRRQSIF
T1 sequence (Q8ND76 whole entry): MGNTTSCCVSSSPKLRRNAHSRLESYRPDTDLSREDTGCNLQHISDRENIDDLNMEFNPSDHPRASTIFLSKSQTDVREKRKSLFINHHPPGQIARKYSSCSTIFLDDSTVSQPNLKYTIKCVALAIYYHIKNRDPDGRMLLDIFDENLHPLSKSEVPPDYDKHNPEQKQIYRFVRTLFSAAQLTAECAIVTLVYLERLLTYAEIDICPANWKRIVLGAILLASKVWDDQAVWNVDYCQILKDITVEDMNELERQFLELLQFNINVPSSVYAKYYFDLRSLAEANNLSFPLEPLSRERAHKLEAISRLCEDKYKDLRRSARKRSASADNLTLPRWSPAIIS
Chain of Cyclin-dependent kinase 7/ cyclin H (P51946 whole entry): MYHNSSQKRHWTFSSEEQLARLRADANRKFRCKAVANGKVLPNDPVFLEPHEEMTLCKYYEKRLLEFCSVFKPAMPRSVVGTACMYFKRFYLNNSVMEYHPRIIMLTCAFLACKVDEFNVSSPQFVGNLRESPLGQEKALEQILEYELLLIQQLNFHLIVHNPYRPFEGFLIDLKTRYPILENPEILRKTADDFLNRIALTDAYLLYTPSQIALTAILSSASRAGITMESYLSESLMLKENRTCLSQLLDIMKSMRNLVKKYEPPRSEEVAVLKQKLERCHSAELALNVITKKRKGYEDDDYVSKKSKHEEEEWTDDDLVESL
Chain of Cyclin-dependent kinase 7/ cyclin H (P50613 whole entry): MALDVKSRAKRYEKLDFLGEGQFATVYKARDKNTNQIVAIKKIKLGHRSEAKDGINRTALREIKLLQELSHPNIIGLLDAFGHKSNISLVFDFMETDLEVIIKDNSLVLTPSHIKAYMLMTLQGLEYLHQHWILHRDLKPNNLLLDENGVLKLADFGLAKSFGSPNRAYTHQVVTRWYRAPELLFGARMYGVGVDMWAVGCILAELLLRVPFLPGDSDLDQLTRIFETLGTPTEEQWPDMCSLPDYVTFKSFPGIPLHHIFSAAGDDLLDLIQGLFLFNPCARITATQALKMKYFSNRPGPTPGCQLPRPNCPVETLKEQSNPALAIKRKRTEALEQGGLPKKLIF
Chain of Cytochrome P450 1A2 (P05177 whole entry): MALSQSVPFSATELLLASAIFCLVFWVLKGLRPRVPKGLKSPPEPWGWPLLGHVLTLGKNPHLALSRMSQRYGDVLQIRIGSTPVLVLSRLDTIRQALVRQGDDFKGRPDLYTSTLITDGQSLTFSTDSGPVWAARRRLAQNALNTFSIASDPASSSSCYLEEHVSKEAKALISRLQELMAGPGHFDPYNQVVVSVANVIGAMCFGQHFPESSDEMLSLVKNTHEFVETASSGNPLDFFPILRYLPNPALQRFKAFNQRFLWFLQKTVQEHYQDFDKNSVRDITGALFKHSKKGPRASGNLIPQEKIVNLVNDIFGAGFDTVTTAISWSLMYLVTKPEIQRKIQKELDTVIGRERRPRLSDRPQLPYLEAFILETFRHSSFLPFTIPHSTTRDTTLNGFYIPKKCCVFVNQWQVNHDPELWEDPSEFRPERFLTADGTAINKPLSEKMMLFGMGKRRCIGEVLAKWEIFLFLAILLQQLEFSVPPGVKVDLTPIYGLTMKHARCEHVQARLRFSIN
Chain of Serine/threonine-protein kinase D1 (Q15139 whole entry): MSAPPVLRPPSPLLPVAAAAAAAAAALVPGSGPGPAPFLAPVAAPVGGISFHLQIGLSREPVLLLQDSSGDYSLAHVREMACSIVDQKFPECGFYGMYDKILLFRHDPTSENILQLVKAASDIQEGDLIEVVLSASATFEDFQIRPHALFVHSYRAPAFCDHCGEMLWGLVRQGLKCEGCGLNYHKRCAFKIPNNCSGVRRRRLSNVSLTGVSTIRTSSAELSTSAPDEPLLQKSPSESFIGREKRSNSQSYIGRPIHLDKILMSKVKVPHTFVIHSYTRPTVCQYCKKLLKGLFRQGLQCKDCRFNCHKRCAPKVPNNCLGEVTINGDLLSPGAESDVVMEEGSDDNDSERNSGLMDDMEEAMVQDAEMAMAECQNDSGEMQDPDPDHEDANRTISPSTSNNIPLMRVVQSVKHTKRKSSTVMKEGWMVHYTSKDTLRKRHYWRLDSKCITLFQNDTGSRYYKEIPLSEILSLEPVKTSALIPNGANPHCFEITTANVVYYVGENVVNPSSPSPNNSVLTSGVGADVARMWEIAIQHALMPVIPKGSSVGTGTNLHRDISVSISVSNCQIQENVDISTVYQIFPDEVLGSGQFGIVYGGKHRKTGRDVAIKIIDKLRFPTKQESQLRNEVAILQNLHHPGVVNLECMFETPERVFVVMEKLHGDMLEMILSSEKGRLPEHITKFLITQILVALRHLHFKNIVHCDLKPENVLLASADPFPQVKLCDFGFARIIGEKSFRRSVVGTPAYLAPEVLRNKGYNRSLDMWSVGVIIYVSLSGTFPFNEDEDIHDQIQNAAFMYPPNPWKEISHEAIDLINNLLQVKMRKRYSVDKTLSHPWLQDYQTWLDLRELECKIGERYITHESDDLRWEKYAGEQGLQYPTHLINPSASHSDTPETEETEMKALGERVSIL
Chain of Serine/threonine-protein kinase D2 (Q9BZL6 whole entry): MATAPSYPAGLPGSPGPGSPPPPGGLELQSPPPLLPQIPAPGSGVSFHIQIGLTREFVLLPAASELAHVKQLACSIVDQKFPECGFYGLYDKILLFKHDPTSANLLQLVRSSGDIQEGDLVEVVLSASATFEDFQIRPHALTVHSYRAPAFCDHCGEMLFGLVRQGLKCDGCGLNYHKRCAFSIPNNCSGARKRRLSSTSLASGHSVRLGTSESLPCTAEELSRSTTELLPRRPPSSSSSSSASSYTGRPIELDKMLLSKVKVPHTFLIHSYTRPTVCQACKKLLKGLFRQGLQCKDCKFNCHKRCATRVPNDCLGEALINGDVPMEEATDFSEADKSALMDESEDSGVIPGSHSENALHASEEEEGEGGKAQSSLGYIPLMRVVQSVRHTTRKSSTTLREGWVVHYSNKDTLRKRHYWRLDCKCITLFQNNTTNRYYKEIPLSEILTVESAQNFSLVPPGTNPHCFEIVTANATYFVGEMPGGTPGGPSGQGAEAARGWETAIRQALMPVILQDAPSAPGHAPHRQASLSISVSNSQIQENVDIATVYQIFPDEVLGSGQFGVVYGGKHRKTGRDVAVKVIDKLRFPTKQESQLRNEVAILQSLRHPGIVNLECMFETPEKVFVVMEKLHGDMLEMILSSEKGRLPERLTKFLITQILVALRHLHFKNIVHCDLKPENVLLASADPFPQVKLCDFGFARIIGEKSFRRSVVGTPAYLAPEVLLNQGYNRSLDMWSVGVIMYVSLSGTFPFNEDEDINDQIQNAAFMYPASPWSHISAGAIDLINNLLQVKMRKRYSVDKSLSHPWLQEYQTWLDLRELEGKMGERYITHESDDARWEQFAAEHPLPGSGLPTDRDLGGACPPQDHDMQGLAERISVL

`CN1CC(F)(F)CCN(C)[C@H]2CC[C@@H](C2)Nc2ncc(C(F)(F)F)c(n2)-c2c[nH]c3c(P(C)(C)=O)c(ccc23)C1=O` showed a Kd [1] of 0.18 nM, a clearance [2] of 52.6 mL/min/kg and a Papp [3] of 3.69 ×10⁻⁶ cm/s. The half-life [4] was 4.3 h, the Cmax [5] was 355 ng/mL and the half-life [6] was 4.4 h. It also gave a half-life [7] of 4.3 h, a half-life [8] of 1.4 h and a Vd [9] of 1.7 L/kg. The AUC(0-t) [10] was 415 ng·h/mL, the AUC(0-t) [11] was 3070 ng·h/mL and the AUC(0-t) [12] was 938 ng·h/mL. The AUC(0-t) [13] was 44600 ng·h/mL, the Cmax [14] was 165 ng/mL and the Cmax [15] was 6620 ng/mL. The bioavailability [16] was 29%, the concentration at 0.5 h [17] was 2240 ng/g and the concentration at 8 h [18] was 67 ng/g. It also gave a concentration at 8 h [19] of 3.5 ng/mL, a half-life [20] of 7.8 h and a half-life [21] of 5.5 h. It also gave a Cmax [22] of 1270 ng/mL, a Cmax [23] of 3830 ng/mL and a Cmax [24] of 3310 ng/mL. The IC50 [25] was 7.9 nM, the IC50 [26] was 16.1 nM and the IC50 [27] was 146 nM. The IC50 (CDK18/Cyclin Y [28]) was 4.2 nM, the IC50 (CDK4/Cyclin D3) was 13.1 nM and the IC50 [29] was 23.7 nM. The IC50 [30] was 45.2 nM, the IC50 [31] was 546 nM and the IC50 [32] was 291 nM. The fraction unbound [33] was 0.043, the fraction unbound [34] was 0.044 and the IC50 (Cytochrome P450 1A2) was greater than 50000 nM. The IC50 (Cytochrome P450 2D6) was 7000 nM, the IC50 (Cytochrome P450 3A4) was 5200 nM and the inhibition in vivo at 20 mg/kg (OVCAR-3 [35]) was 111%. It also gave a half-life [36] of 2.8 h, a half-life [37] of 3.4 h and a Cmax [38] of 214 ng/mL. For the same compound, the AUC(0-t) [39] was 1720 ng·h/mL, the inhibition in vivo at 1 mg/kg (HCC70) was 35.5% and the half-life [40] was 1.6 h. The Cmax [41] was 130 ng/mL, the AUC(0-t) [42] was 84 ng·h/mL and the Activity [43] was “Non-toxic”. The IC50 (OVCAR-3 [44]) was 57 nM, the residual activity [45] was 9.4% and the residual activity [46] was 0.8%. For the same compound, the residual activity (CDK18/Cyclin Y [47]) was 2.9%.

From ChEMBL document CHEMBL6092221, “Discovery of a Novel Macrocyclic Noncovalent CDK7 Inhibitor for Cancer Therapy” (J Med Chem, 2024)
